Assay results as given in paper PMC4714869 (Steroids, 2015).
“Also recorded” adds a separate entry of the source.

Tests used:
[1] = test system: PgR and GREB1 gene expression in MCF-7 cells; assay: Estrogen-responsive gene expression; type: cell-based; settings: for PgR and GREB1 RNA level (gene stimulation): MCF-7, 10^−8 M E2, 10^−6 M Liq or Iso-Liq, 3×10^−6 M L1–L7, 24 h
MCF-7 cells = assay: Proliferation of MCF-7 cells; type: cell-based; settings: 6 days; two highest concentrations 10^−6 and 3×10^−6 M
[2] = test system: proteinase inhibitor 9 (PI9) expression in HepG2 + ERα cells; assay: PI9 gene expression in HepG2 cells stably expressing ERα; settings: 10^−8 M EE2; 3×10^−6 M Liq, Iso-Liq, L1–L7; 24 h
[3] = test system: Ki67 gene expression in MCF-7 cells; assay: Ki67 gene expression in MCF-7 cells by qPCR; settings: for Ki67 RNA expression (stimulation): 10^−8 M E2, 10^−6 M Liq or Iso-Liq, 3×10^−6 M L1–L7, 24 h; for suppression of E2-elicited increase in Ki67 mRNA: 3×10^−6 M component with 10^−9 M E2, 24 h
human ERα = molecular target: T1, human ERα (Homo sapiens, UniProt P03372); assay: Competitive radiometric binding assay with [3H]-estradiol tracer, ERα; settings: RBA of estradiol set to 100%; 2 nM [3H]-estradiol, 18–24 h at 0 °C
T1 sequence (P03372 1-595): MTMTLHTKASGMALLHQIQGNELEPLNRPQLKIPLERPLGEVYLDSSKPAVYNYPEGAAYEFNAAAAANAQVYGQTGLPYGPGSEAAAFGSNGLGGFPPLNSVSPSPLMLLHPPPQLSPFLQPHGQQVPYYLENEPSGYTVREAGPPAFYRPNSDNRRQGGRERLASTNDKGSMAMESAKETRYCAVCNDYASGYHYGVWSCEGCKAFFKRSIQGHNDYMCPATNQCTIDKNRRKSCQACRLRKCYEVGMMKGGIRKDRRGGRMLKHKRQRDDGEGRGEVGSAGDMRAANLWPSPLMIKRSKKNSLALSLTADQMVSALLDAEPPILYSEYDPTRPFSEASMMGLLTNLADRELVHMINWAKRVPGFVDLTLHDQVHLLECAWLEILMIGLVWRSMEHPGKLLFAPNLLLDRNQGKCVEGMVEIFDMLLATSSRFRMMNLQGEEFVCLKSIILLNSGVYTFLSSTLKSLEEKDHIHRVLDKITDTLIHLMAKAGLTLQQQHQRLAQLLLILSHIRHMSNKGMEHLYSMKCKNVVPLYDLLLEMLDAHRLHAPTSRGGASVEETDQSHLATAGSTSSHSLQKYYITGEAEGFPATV

human ERβ = human ERβ (Homo sapiens, UniProt Q92731); settings: for RBA (mean ± SD) ERβ: RBA of estradiol set to 100%, 2 nM [3H]-estradiol, 18–24 h at 0 °C
Chain of human ERβ (Q92731 whole entry): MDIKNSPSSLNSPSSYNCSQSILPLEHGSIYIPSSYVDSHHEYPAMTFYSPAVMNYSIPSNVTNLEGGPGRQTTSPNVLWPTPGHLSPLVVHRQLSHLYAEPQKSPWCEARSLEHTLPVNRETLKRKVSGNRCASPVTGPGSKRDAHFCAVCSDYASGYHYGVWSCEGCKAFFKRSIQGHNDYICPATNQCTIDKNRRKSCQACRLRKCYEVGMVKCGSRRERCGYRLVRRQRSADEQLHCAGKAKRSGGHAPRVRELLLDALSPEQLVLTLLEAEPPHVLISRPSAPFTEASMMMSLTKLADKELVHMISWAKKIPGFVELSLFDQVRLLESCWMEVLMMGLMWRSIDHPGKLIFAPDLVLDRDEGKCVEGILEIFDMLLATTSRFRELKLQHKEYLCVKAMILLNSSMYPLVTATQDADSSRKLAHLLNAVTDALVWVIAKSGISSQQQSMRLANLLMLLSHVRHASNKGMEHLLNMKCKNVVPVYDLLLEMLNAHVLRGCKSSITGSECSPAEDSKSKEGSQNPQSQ

[4] = test system: E2-stimulated PgR and GREB1 gene expression in MCF-7 cells; assay: Inhibition of E2-stimulated PgR and GREB1 gene expression in MCF-7 cells; settings: 3×10^−6 M component with 10^−9 M E2, 24 h

SMILES	RBA (mean ± SD) ERα (human ERα) [%]	ERβ/ERα ratio of RBA (human ERβ)	RBA (mean ± SD) ERβ (human ERβ) [%]	preference for ERβ over ERα (human ERβ; from RBA values)	PgR and GREB1 RNA level (gene stimulation) [1]	stimulation of MCF-7 cell proliferation (MCF-7 cells)	PI9 expression in HepG2 + ERα cells [2]	effect of antiestrogen cotreatment on increases in Ki67 RNA expression ([3]; 10^−6 M ICI 182,780, 24 h)	Ki67 RNA expression (stimulation) [3]	potency in stimulating estrogen-regulated genes, fold less than E2 ([1]; efficacy nearly equivalent to E2)	block of E2-stimulated GREB1 expression [4]	block of E2-stimulated PgR expression [4]	suppression of E2-elicited increase in Ki67 mRNA [3]
O=C(/C=C/c1ccc(O)cc1)c1ccc(O)cc1O [Iso-Liq, Iso-liquiritigenin, reference compound]					markedly increased	stimulated cell proliferation quite strongly	stimulated expression						
C[C@]12CC[C@@H]3c4ccc(O)cc4CC[C@H]3[C@@H]1CC[C@@H]2O [E2, estradiol, reference compound]					markedly increased								
C[C@]12CC[C@@H]3c4ccc(O)cc4C[C@@H](CCCCCCCCC[S+]([O-])CCCC(F)(F)C(F)(F)F)[C@H]3[C@@H]1CC[C@@H]2O (some centres unmarked) [ICI 182,780, reference compound]								eliminated					
C#C[C@]1(O)CC[C@H]2[C@@H]3CCc4cc(O)ccc4[C@H]3CC[C@@]21C [EE2, ethinyl estradiol]							stimulated expression						
O=C1C[C@@H](c2ccc(O)cc2)Oc2cc(O)ccc21 [Liq, Liquiritigenin, reference compound]	<0.001				markedly increased	stimulated cell proliferation quite strongly	stimulated expression						

Continued, in another order:

RBA (mean ± SD) ERα (human ERα) [%]	ERβ/ERα ratio of RBA (human ERβ)	RBA (mean ± SD) ERβ (human ERβ) [%]	preference for ERβ over ERα (human ERβ; from RBA values)	SMILES	PgR and GREB1 RNA level (gene stimulation) [1]	stimulation of MCF-7 cell proliferation (MCF-7 cells)	PI9 expression in HepG2 + ERα cells [2]	effect of antiestrogen cotreatment on increases in Ki67 RNA expression ([3]; 10^−6 M ICI 182,780, 24 h)	Ki67 RNA expression (stimulation) [3]	potency in stimulating estrogen-regulated genes, fold less than E2 ([1]; efficacy nearly equivalent to E2)	block of E2-stimulated GREB1 expression [4]	block of E2-stimulated PgR expression [4]	suppression of E2-elicited increase in Ki67 mRNA [3]
0.017 ± 0.001	2.4	0.040 ± 0.001		COc1c(CC=C(C)C)c(O)cc2oc(=O)c(-c3ccc(O)cc3O)cc12 [L6, Glycycoumarin]	effective in increasing PgR and GREB1 expression				all compounds except for L1, L5, L6 and L7 increased Ki67 RNA expression				
0.062 ± 0.008	0.6	0.039 ± 0.011		COc1ccc(C2COc3cc(O)ccc3C2)c(O)c1 (centres unmarked) [L4, Vestitol]	effective in increasing PgR and GREB1 expression	stimulated cell proliferation quite strongly				ca. 10,000 fold			
0.010 ± 0.001	11.1	0.111 ± 0.004	greater than 10 fold	COc1c(CC=C(C)C)c(O)cc2c1C[C@H](c1ccc(O)cc1O)CO2 [L5, Glyasperin C]	little or no change in gene expression; also recorded: did not stimulate expression of PgR or GREB1	inactive in eliciting elevation of cell proliferation			did not stimulate Ki67 gene expression		only partially	almost fully	not effective in suppressing
0.010 ± 0.004	2.7	0.027 ± 0.004		COc1ccc(-c2coc3cc(O)ccc3c2=O)cc1O [L2, Calycosin]	effective in increasing PgR and GREB1 expression								
0.008 ± 0.001	2.4	0.019 ± 0.004		COc1c(CC=C(C)C)c(O)cc(O)c1-c1coc2cc(O)ccc2c1=O [L7, Glicoricone]	little or no change in gene expression; also recorded: did not stimulate expression of PgR or GREB1	inactive in eliciting elevation of cell proliferation			did not stimulate Ki67 expression		only partially; also recorded: most effective antagonist of GREB1 stimulation by E2	almost fully	partially suppressed
0.075 ± 0.015	1.2	0.091 ± 0.001		CC1(C)C=Cc2c(ccc3c2OC[C@@H](c2ccc(O)cc2O)C3)O1 [L1, Glabridin]	little or no change in gene expression; also recorded: did not stimulate expression of PgR or GREB1	inactive in eliciting elevation of cell proliferation			did not stimulate Ki67 gene expression		only partially	almost fully	not effective in suppressing
